Columns and labels:
deadnettle = experiment: Test E deadnettle; assay type: in vivo, Lamium amplexicaule; conditions: Postemergence
How it was run: (§1)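 For postemergence, plants at the 1- to 4-leaf stage, in a 60:40 mix of sandy loam and potting mix, treated with compound formulated in a surfactant-containing non-phytotoxic solvent. Visual assessment versus untreated controls followed roughly 21–28 days in the greenhouse.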

Russian thistle [1] = experiment: Test E Russian thistle; assay type: in vivo, Salsola kali; conditions: Postemergence
Protocol: […] A mixture of sandy loam soil and greenhouse potting mix in a 60:40 ratio was used for the postemergence test.
(§2) Plantings of these crops and weed species were adjusted to produce plants of appropriate size for the postemergence test. All plant species were grown using normal greenhouse practices. Crop and weed species include annual bluegrass (Poa annua), blackgrass (Alopecurus myosuroides), black nightshade (Solanum nigra), chickweed (Stellaria media), common poppy (Papaver rhoeas), deadnettle (Lamium amplexicaule), downy brome (Bromus tectorum), field violet (Viola arvensis), galium (Galium aparine), green foxtail (Setaria viridis), Italian ryegrass (Lolium multiflorum), jointed goatgrass (Aegilops cylindrica), kochia (Kochia scoparia), lambsquarters (Chenopodium album), littleseed canarygrass (Phalaris minor), rape (Brassica napus), redroot pigweed (Amaranthus retroflexus), Russian thistle (Salsola kali), scentless chamomile (Matricaria inodora), spring barley (Hordeum vulgare), sugar beet (Beta vulgaris), sunflower (Helianthus annuus), ivyleaf speedwell (Veronica hederaefolia), spring wheat (Triticum aestivum), winter wheat (Triticum aestivum), wild buckwheat (Polygonum convolvulus), wild mustard (Sinapis arvensis), wild oat (Avena fatua), windgrass (Apera spica-venti) and winter barley (Hordeum vulgare).
(§3) Treated plants and untreated controls were maintained in a greenhouse for approximately 21 to 28 days, after which all treated plants were compared to untreated controls and visually evaluated. […] A dash response (-) means no test result.

scentless chamomile [2] = experiment: Test E scentless chamomile; assay type: in vivo, Matricaria inodora; conditions: Postemergence
Protocol: (§4) Compounds evaluated in this test were formulated in a non-phytotoxic solvent mixture which included a surfactant and applied to plants that were in the 1- to 4-leaf stage (postemergence application). A mixture of sandy loam soil and greenhouse potting mix in a 60:40 ratio was used for the postemergence test.
as §2, §3

spring barley [3] = experiment: Test E spring barley; assay type: in vivo, Hordeum vulgare; conditions: Postemergence
Protocol: as §4, §2, §3

spring wheat [4] = experiment: Test E spring wheat; assay type: in vivo, Triticum aestivum; conditions: Postemergence
Protocol: as §4, §2, §3

wild oat = experiment: Test E wild oat; assay type: in vivo, Avena fatua; conditions: Postemergence
How it was run: as §1

annual bluegrass = experiment: Test E annual bluegrass; assay type: in vivo, Poa annua; conditions: Preemergence
chickweed = experiment: Test E chickweed; assay type: in vivo, Stellaria media; conditions: Preemergence
downy brome = experiment: Test E downy brome; assay type: in vivo, Bromus tectorum; conditions: Preemergence
field violet = experiment: Test E field violet; assay type: in vivo, Viola arvensis; conditions: Preemergence
rape = experiment: Test E rape; assay type: in vivo, Brassica napus; conditions: Preemergence
Russian thistle [5] = experiment: Test E Russian thistle; assay type: in vivo, Salsola kali; conditions: Preemergence
scentless chamomile [6] = experiment: Test E scentless chamomile; assay type: in vivo, Matricaria inodora; conditions: Preemergence
spring barley [7] = experiment: Test E spring barley; assay type: in vivo, Hordeum vulgare; conditions: Preemergence
sugar beet = experiment: Test E sugar beet; assay type: in vivo, Beta vulgaris; conditions: Preemergence
sunflower = experiment: Test E sunflower; assay type: in vivo, Helianthus annuus; conditions: Preemergence
spring wheat [8] = experiment: Test E spring wheat; assay type: in vivo, Triticum aestivum; conditions: Preemergence
wild mustard = experiment: Test E wild mustard; assay type: in vivo, Sinapis arvensis; conditions: Preemergence
[9] = Rate 250 g/ha, 0 to 100 scale (0 no effect, 100 complete control)
[10] = Rate 500 g/ha, 0 to 100 scale, 0 no effect, 100 complete control
[11] = Rate 125 g/ha, 0 to 100 scale (0 no effect, 100 complete control)
[12] = Rate 500 g/ha, 0 to 100 scale where 0 is no effect and 100 is complete control

CC(C)N(C(=O)n1oc(=O)n(C(C)C)c1=O)c1ccc(F)cc1F [Compound 109]
85: Plant response rating, Wild mustard (wild mustard; Rate 250 g/ha, 0 to 100 scale)
70: Plant response rating, Sugar beet (sugar beet; [12])
50: Plant response rating, Field violet (field violet; [11]) | Plant response rating, Spring Barley (spring barley [7]; [12]) | Plant response rating, Spring Wheat (spring wheat [8]; [12])
30: Plant response rating, Deadnettle (deadnettle; [9]) | Plant response rating, Deadnettle (deadnettle; [10]) | Plant response rating, Spring Barley (spring barley [3]; Rate 125 g/ha, 0 to 100 scale) | Plant response rating, Spring Wheat (spring wheat [4]; Rate 125 g/ha, 0 to 100 scale) | Plant response rating, Scentless chamo (scentless chamomile [6]; Rate 250 g/ha, 0 to 100 scale) | Plant response rating, Scentless chamo (scentless chamomile [6]; [12]) | Plant response rating, Wild mustard (wild mustard; [11])
10: Plant response rating, Scentless chamo (scentless chamomile [2]; [10]) | Plant response rating, Spring Wheat (spring wheat [4]; [10]) | Plant response rating, Wild oat (wild oat; [10]) | Plant response rating, Rape (rape; [11]) | Plant response rating, Sunflower (sunflower; Rate 250 g/ha, 0 to 100 scale)
80: Plant response rating, Downy brome (downy brome; Rate 250 g/ha, 0 to 100 scale) | Plant response rating, Wild mustard (wild mustard; [12])
65: Plant response rating, Rape (rape; [12])
0: Plant response rating, Deadnettle (deadnettle; Rate 125 g/ha, 0 to 100 scale) | Plant response rating, Russian thistle (Russian thistle [1]; Rate 125 g/ha, 0 to 100 scale) | Plant response rating, Russian thistle (Russian thistle [1]; [9]) | Plant response rating, Russian thistle (Russian thistle [1]; [10]) | Plant response rating, Scentless chamo (scentless chamomile [2]; Rate 125 g/ha, 0 to 100 scale) | Plant response rating, Scentless chamo (scentless chamomile [2]; [9]) | Plant response rating, Wild oat (wild oat; Rate 125 g/ha, 0 to 100 scale) | Plant response rating, Wild oat (wild oat; [9]) | Plant response rating, Downy brome (downy brome; [11]) | Plant response rating, Russian thistle (Russian thistle [5]; [11]) | Plant response rating, Russian thistle (Russian thistle [5]; Rate 250 g/ha, 0 to 100 scale) | Plant response rating, Russian thistle (Russian thistle [5]; [12]) | Plant response rating, Scentless chamo (scentless chamomile [6]; [11]) | Plant response rating, Sugar beet (sugar beet; [11]) | Plant response rating, Sunflower (sunflower; [11])
40: Plant response rating, Annual bluegras (annual bluegrass; [11]) | Plant response rating, Chickweed (chickweed; [11]) | Plant response rating, Spring Wheat (spring wheat [8]; Rate 250 g/ha, 0 to 100 scale)
15: Plant response rating, Field violet (field violet; Rate 250 g/ha, 0 to 100 scale)
100: Plant response rating, Chickweed (chickweed; [12])
75: Plant response rating, Annual bluegras (annual bluegrass; [12])
20: Plant response rating, Spring Barley (spring barley [3]; [9]) | Plant response rating, Spring Barley (spring barley [3]; [10]) | Plant response rating, Spring Wheat (spring wheat [4]; [9]) | Plant response rating, Field violet (field violet; [12]) | Plant response rating, Spring Barley (spring barley [7]; Rate 250 g/ha, 0 to 100 scale) | Plant response rating, Spring Wheat (spring wheat [8]; [11])
55: Plant response rating, Rape (rape; Rate 250 g/ha, 0 to 100 scale)
5: Plant response rating, Spring Barley (spring barley [7]; [11]) | Plant response rating, Sunflower (sunflower; [12])
60: Plant response rating, Downy brome (downy brome; [12]) | Plant response rating, Sugar beet (sugar beet; Rate 250 g/ha, 0 to 100 scale)
90: Plant response rating, Annual bluegras (annual bluegrass; Rate 250 g/ha, 0 to 100 scale)
